Results on 1 compound are retold here after patent US20250019376A1, “CHROMANE AMIDINE MONOBACTAM ANTIBIOTICS” (priority 2021, published 2025).

Common to all, as to conditions: lowest concentration inhibiting 95% of growth (OD600); with BLi relebactam 4 μg/mL; 22 hours, 35±2° C.
Assay [1] has as its system Pseudomonas aeruginosa expressing AmpC (CL5701). The experiment in a line: Growth inhibitory concentration (OD600), P. aeruginosa CL5701. Format: cell-based. On the procedure:
(§1) The concentrations of compounds required to inhibit the growth of various strains of bacteria were determined in an assay that assessed bacterial growth by measuring optical density at 600 nm (OD600). The bacterial strains tested included the clinical strains Escherichia co/i expressing NDM-1 (CLB30016), Klebsiella pneumoniae expressing KPC-1 (CL6569), Acinetobacter baumannii expressing TEM-1, AmpC, and Oxa-24/40 (CL6188) and Pseudomonas aeruginosa expressing AmpC (CL5701). All compounds were tested in the presence of a f3 lactamase inhibitor (BLi, Relebactam) in 384-well microplates.
(§2) The clinical strains were stored as frozen single use stocks, thawed and diluted into 1.1× cation-adjusted Mueller-Hinton 11 broth to achieve approximately 2×10^5 CFU/mL. Test compounds were dissolved in DMSO and diluted 1:50 in the assay, resulting in a final concentration range of 100 μM to 0.098 μM. On the day of the assay, 1 μL of test compound was added to the plate followed by 4 μL of 50 μg/mL BLi in MOPS buffer and 45 μL of diluted bacteria. Plates were centrifuged at 1000 rpm for 30 seconds, shaken at approximately 800 rpm for 1 minute, and incubated at 35±2° C. for 22 hours. The concentration of BLi used in the assay was 4 μg/mL. At the end of the incubation, absorbance at 600 nm was determined using a spectrophotometer. Inhibition was quantitated by identifying the lowest concentration of test compound that was required to inhibit […] of the growth of the bacteria.

Assay [2] relates to Escherichia co/i expressing NDM-1 (CLB30016). The experiment in a line: Growth inhibitory concentration (OD600), E. coli CLB30016. Format: cell-based, Escherichia coli. The procedure:
as §1, §2

Assay [3] has as its system Acinetobacter baumannii expressing TEM-1, AmpC, and Oxa-24/40 (CL6188). Format: cell-based. The procedure: as §1, §2
For assay [4], the system named is Klebsiella pneumoniae expressing KPC-1 (CL6569). The experiment in a line: Growth inhibitory concentration (OD600), K. pneumoniae CL6569. Type of assay: cell-based. On the procedure:
as §1, §2

In the case of `CC1(C)[C@H](NC(=O)/C(=N\O[C@](C)(C(=O)O)[C@H]2CCc3cc(C(=N)N[C@H]4C[C@](N)(C(O)CO)C4)ccc3O2)c2csc(N)n2)C(=O)N1OS(=O)(=O)O` (stereo partly drawn) [Compound 100, (S)-2-((R)-6-(N-((1S,3S)-3-amino-3-((R)-1,2-dihydroxyethyl)cyclobutyl)carbamimidoyl)chroman-2-yl)-2-((((Z)-1-(2-aminothiazol-4-yl)-2-(((S)-2,2-dimethyl-4-oxo-1-(sulfooxy)azetidin-3-yl)amino)-2-oxoethylidene)amino)-oxy)propanoic acid], the “PA_CL5701 MITC95” value in assay [1] stood at 1.563 µM. Further, the “EC_CLB30016 MITC95” value in assay [2] is 6.25 µM. In addition, the “AB_CL6188 MITC95” value in assay [3] came to 6.25 µM. Also, the “KP_CL6569 MITC95” value in assay [4] was 0.7813 µM.
